For one assay, the system named is chick embryo retina. Briefly: In Vitro Chick Retina Assay (excitotoxic lesions by NMDA or KA). Format: cell-based. Particulars: vs. NMDA 200 μM, 30 min at 37° C. From the text:
[Olney, J. W., Price, M. T., Fuller, T. A., Labruyere, J., Samson, L., Carpenter, M., Mahan, K., "The Anti-Excitotoxic Effects of Certain Anesthetics, Analgesics and Sedative-Hypnotics", Neuroscience Letters, 68, 29-34, (1986)].
Using an approach similar to that earlier described [Reif-Lehrer, L., Bergenthal, J. and Hanninen, L., "Effects of Monosodium Glutamate on Chick Embryo Retina in Culture", Invest. Ophthalmol., 14, 114-12, (1975)], 15-day-old chick embryos were decapitated and their eyes removed and cut into quadrants after excising the cornea and removing the lens, vitreous and iris. The retinal quadrants were then gently separated from the pigment epithelium and incubated for 30 minutes at 37° C. in a standard balanced salt solution (BSS) to which test compounds, either excitatory amino acid agonists or potential antagonists or both, were added in various concentrations. As described elsewhere [Olney, J. W., Price, M. T., Samson, L. and Labruyere, J., "The Role of Specific Ions in Glutamate Neurotoxicity". Neurosci. […]

Another assay deals with CD-1 mouse. The assay is described as follows: In Vivo 3-MPA-Induced Convulsions (tonic hindlimb extension). Particulars: Mus musculus. As to the method: In the CD-1 mouse, i.p. injection of 3-MPA produces clonic seizures, tonic hindlimb extension and death. Seizures begin within 2-3 minutes after injection. The dose-response for induction of tonus by 3-MPA is unusual. The incidence of tonus increases rapidly from 35 to 50 mg/kg and remains constant at a less than maximal level over a broad dose range. 3-MPA doses from 50 to 150 mg/kg produce tonus in approximately 75% of the treated mice. The incidence of death over this dose range is variable and less than maximal.
In order to test for antagonism of 3-MPA-induced tonus, the lowest dose of 3-MPA that produced tonus consistently in 75% of the animals (50 mg/kg i.p.) was chosen. Test compounds were administered subcutaneously 30-40 minutes prior to i.p. administration of 3-MPA. Immediately after 3-MPA administration, each mouse was placed in a small cage made of steel rods. The mice were then observed for the presence or absence of tonic hindlimb extension. Reduction (from 75%) in the incidence of tonic hindlimb extension was considered protection from 3-MPA-induced convulsions. The dose of the test compound varied using groups of ten mice per dose until dose response curves are constructed, and ED50 's are calculated.

Like-named read-outs stand apart in the source and are kept apart here.

Regarding `NC(C(=O)O)c1ccc(CP(=O)(O)O)cc1` (stereo not drawn) [Example VI, 4-(Phosphonomethyl)phenylglycine], the “concentration for full antagonism against NMDA (complete prevention of toxic activity)” value in the assay with chick embryo retina amounted to 50 µM. Further, the ED50 with CD-1 mouse (po, i.g., 3-MPA 50 mg/kg i.p., read-out: 3-MPA Convulsions i.g. (ED50)) was found to be 300 mg/kg; with CD-1 mouse (sc, s.c. 30-40 minutes prior to 3-MPA 50 mg/kg i.p., read-out: 3-MPA Convulsions s.c. (ED50)), 6 mg/kg.

The ED50 is the dose that gives a 50% effect, or the effect in half of the subjects.
